From EP1621203A1, “RNAIII-inhibiting peptides for treating HIV infection” (Genoscience, priority 2004, dated 2006)
Counter-ions that a name gives are not always drawn. Like-named read-outs stand apart in the source and are kept apart here. Where a SMILES comes first, the peptide text is derived from it. Bridges are numbered along the chain shown (N, C = ends). Roman numbers before positions name the chains, in order. Where no end group is shown, it is not given here. [ ]: non-standard residue; d: D form. Ava = NCCCCC(=O)O

Experiments:
HIV-1 NL4-3 [1] = format: cell-based; conditions: for IC50: NL4-3
Description: (§1) Cell cultures - Human peripheral blood lymphocytes (PBL) obtained from healthy HIV-seronegative donors were isolated by Ficoll-Hypaque gradient centrifugation and maintained in RPMI 1640 with ultraglutamine supplemented with […], 100 U/ml penicillin and […] streptamycin, and 10% heat-inactivated fetal calf serum. Cells were stimulated three days in the medium supplemented with 20 U/ml phytohemagglutinin P before evaluation of the antiviral activity. The human C8166 T-cell line was maintained in RPMI 1640 supplemented with 100 U/ml penicillin and […] streptamycin, and 10% heat-inactivated fetal calf serum.
(§2) Evaluation of antiviral activity on human immune cells - Samples of 3 x 10^5 human PBL in […] are preincubated in 96-well plates with various concentrations of each peptide at 37°C (incubator flushed with 5% CO2). After 1 hour incubation, […] of viral suspension (HIV-1 NL4-3 strain) was added at a multiplicity of infection of 1,000 TCID50 per ml. After three washings, cells were cultured in 24-well plates with 1 ml of RPMI 1640 in the continuous presence of the peptides. The cell culture medium was replaced at day 4 post-infection. During this assay, treatment with antiviral compounds was permanent (before, during and after infection). Toxicity was evaluated through daily cell counts and trypan-blue exclusion assays. Infection of human PBL was assessed daily by virus-induced cytopathic effects (syncytium formation) and after 14 days by quantification of p24 antigen in culture supernatants. Measurements of HIV-1 p24 concentrations in the culture supernatant were achieved by ELISA with a detection cut-off of 5 pg/ml (p24 HIV kit, Perkin-Elmer). Similar assays were performed with human C8166 T-cells. Data on PBL are the mean of two separate experiments realized in duplicate.

HIV-1 NL4-3 [2] = test: Infection assay on human PBL with HIV-1 NL4-3 (syncytium formation, p24 antigen ELISA); format: cell-based; conditions: Human immunodeficiency virus 1, NL43, HIV-1 NL4-3 (1,000 TCID50), peptides continuously present; for IC50: read-out: IC50 (50% inhibitory concentration); for IC100: read-out: IC100 (100% inhibitory concentration)
Description: as §1, §2

Row | Compound | IC50 (HIV-1 NL4-3 [1]) [nM] | IC50 (HIV-1 NL4-3 [2]) [nM] | IC100 (HIV-1 NL4-3 [2]) [µM] | IC100 (100% inhibitory concentration) (HIV-1 NL4-3 [1]; human PBL, HIV-1 NL4-3 (1,000 TCID50), peptides continuously present) [µM]
1 | C[C@@H](O)[C@H](NC(=O)[C@H](Cc1c[nH]c2ccccc12)NC(=O)[C@@H]1CCCN1C(=O)[C@H](CO)NC(=O)[C@@H](N)Cc1ccc(O)cc1)C(=O)N[C@@H](CC(N)=O)C(=O)N[C@@H](Cc1ccccc1)C(=O)NCCCC[C@H](NC(=O)[C@H](Cc1ccccc1)NC(=O)[C@H](CC(N)=O)NC(=O)[C@@H](NC(=O)[C@H](Cc1c[nH]c2ccccc12)NC(=O)[C@@H]1CCCN1C(=O)[C@H](CO)NC(=O)[C@@H](N)Cc1ccc(O)cc1)[C@@H](C)O)C(=O)NCCCC[C@H](NC(=O)[C@H](CCCCNC(=O)[C@H](Cc1ccccc1)NC(=O)[C@H](CC(N)=O)NC(=O)[C@@H](NC(=O)[C@H](Cc1c[nH]c2ccccc12)NC(=O)[C@@H]1CCCN1C(=O)[C@H](CO)NC(=O)[C@@H](N)Cc1ccc(O)cc1)[C@@H](C)O)NC(=O)[C@H](Cc1ccccc1)NC(=O)[C@H](CC(N)=O)NC(=O)[C@@H](NC(=O)[C@H](Cc1c[nH]c2ccccc12)NC(=O)[C@@H]1CCCN1C(=O)[C@H](CO)NC(=O)[C@@H](N)Cc1ccc(O)cc1)[C@@H](C)O)C(N)=O [(YSPWTNF)4-K2-K-NH2] (I: H-YSPWTNFKK-NH2 / II: H-YSPWTNFK / III: H-YSPWTNF / IV: H-YSPWTNF; amide I:8-IV:C, I:9-II:C, II:8-III:C) | 1000 |  |  | 
2 | CC(C)(C)NC(=O)[C@@H]1CN(Cc2cccnc2)CCN1C[C@@H](O)C[C@@H](Cc1ccccc1)C(=O)N[C@H]1c2ccccc2C[C@H]1O [Crixivan®, Indinavir Sulfate] |  | 70 | 0.5 | 
3 | Nc1ccn([C@@H]2CS[C@H](CO)O2)c(=O)n1 [Epivir®, Lamivudine] |  | 50 | 0.5 | 
4 | C[C@@H](O)[C@H](NC(=O)[C@H](Cc1c[nH]c2ccccc12)NC(=O)[C@@H]1CCCN1C(=O)[C@H](CO)NC(=O)[C@@H](N)Cc1ccc(O)cc1)C(=O)N[C@@H](CC(N)=O)C(=O)N[C@@H](Cc1ccccc1)C(=O)NCCCCC(N)=O [YSPWTNF-valerate-NH2] (H-YSPWTNF[Ava]-NH2; N-terminus assumed) | 500 |  |  | > 5
5 | C[C@H](O)[C@@H](NC(=O)[C@@H](Cc1c[nH]c2ccccc12)NC(=O)[C@H]1CCCN1C(=O)[C@@H](CO)NC(=O)[C@H](N)Cc1ccc(O)cc1)C(=O)N[C@H](CC(N)=O)C(=O)N[C@H](Cc1ccccc1)C(N)=O [YdSdPdWdTdNdFd-NH2] (H-[dY][dS][dP][dW][dT][dN][dF]-NH2) | 5000 |  |  | 
6 | YSPITNF-NH2 [YSPITNF-NH2] | 300 |  |  | 
7 | YSPWTNF-NH2 [YSPWTNF-NH2] | 10 |  |  | 
